# In US20050118576A1, “Novel method and assays for yeast-based drug screening” (priority 2000, published 2005):
# System: W303-1B/Δydl120w::Kan^R yeast
# Assay: Growth of mutant yeast in medium supplemented with Fe(II) or Cu(II) ions (OD620)
# Type: cell-based, Saccharomyces cerevisiae
# Details: increasing concentrations of the metal salt, SD+ medium, 19 hours at 30° C., FIG. 2A/2B
# Procedure: For this experiment, W303-1B/Δydl120w::Kan^R and wild-type yeast precultures were grown in YPD medium for 16-24 hours at 30° C. until OD600 0.4-0.6. The precultures were diluted into SD+ medium (6.7 mg/ml yeast nitrogen base w/o amino acids, 2 mg/ml yeast extracts, 0.04 mg/ml adenine sulfate, 0.0625 mg/ml uracil, 0.04 mg/ml L-leucine, 0.03 mg/ml L-histidine-HCl, 0.03 mg/ml L-tryptophane in water) supplemented with variable concentrations of FeSO4 (dissolved in 0.1 N HCl) or CuSO4 (dissolved in water). Aliquots of 100 microliter of yeast suspension were dispensed into single wells of a 96-well microtiter plate. In the experiments with FeSO4 supplementation (FIG. 2A) culture medium for W303-1B/Δydl120w::Kan^R and wild-type yeast contained 4% w/v glucose and all wells were adjusted to the same final concentration of HCl and to DMSO (1% v/v) to prevent the solvent from interfering with the results.
# Following 19 hours of culture at 30° C., the growth of yeast was determined by OD620 measurement using a microplate reader.
smiles,measurement,value
O=S(=O)([O-])[O-].[Cu+2] [CuSO4],growth of yeast as determined by OD620 measurement,clearly inhibit the growth of the frataxin deficient yeast
O=S(=O)([O-])[O-].[Fe+2] [FeSO4],growth of yeast as determined by OD620 measurement,clearly inhibit the growth of the frataxin deficient yeast
